Where no end group is shown, it is not given here.

For one experiment, the system named is Islet cells. The experiment can be described thus: insulin release by perifusion of islet cells after oxygen deprivation, measured by ELISA. Type of experiment: cell-based. As to conditions: 11 mM glucose, GLP-1 in addition to 11 mM glucose, KCl.
For the next experiment, the system named is human islets. The experiment can be described thus: glucagon-insulin release from in vitro perifused human islets. Format: cell-based. As to conditions: alpha cells of perifused human islets. Here is the method:
FIG. 22 illustrates glucagon-insulin release from in vitro perifused human islets. This experiment was conducted to show the usefulness of the perifusion system in drug screening. Insulin and glucagon are hormones secreted from the beta and alpha cells of the islets of Langerhans. […] In the same way, any other compound's ability to influence the health or alter the behavior of the pancreatic islets can be assayed using the perifusion system of the invention.

The mark [1] stands for this setting: control batch, normal culture conditions without oxygen deprivation.
[2] abbreviates: islets after twelve hours of incubation with low oxygen.

Description for Islet cells: Islet cells were compromised by depriving them from the normal oxygen concentration for 0.5, 2, 6, and 12 hours. After that, these islets were incubated in the perifusion system and exposed to substances that stimulate insulin release such as 11 mM of glucose, GLP-1 in addition to 11 mM of glucose, and potassium chloride (KCl).

Regarding `[Cl-].[K+]` [KCl, potassium chloride], the “insulin release response to stimulus” value is reported as “prominent response” with Islet cells (setting [1]) and “very small” in the experiment with Islet cells (setting [2]). The matching figures for “GLP-1 (HAEGTFTSDVSSYLEGQAAKEFIAWLVKGR; ends and bridges not checked; UniProt P01275 98-127, looked up)”: “prominent response” and “little or no response”. In the case of kainates, in the experiment with human islets, the glucagon release profile result is recorded as “stimulated the alpha cells to produce glucagon”.

Values taken from patent US8263389B2, “Perifusion device” (Biorep Technologies, Inc., priority 2007, dated 2012).
